Laboratory results from US20190365790A1, “Compounds, Compositions and Methods for Prevention or Treatment of Liver and Lipid-related Conditions” (SIVANARAY INC., priority 2017, published 2019).

Tested on: HFD-fed, streptozotocin (STZ) injected rats with type 2 diabetes (T2DM)
Test: Study 3 (BVISIV): plasma biochemical parameters in HFD + STZ type 2 diabetes rats
Type: in vivo
Conditions: for relative effectiveness in lowering serum triglyceride, LDL and ALT levels: 200 mg/kg/day oral, comparison among BVISIV formulations

SMILES	relative effectiveness in lowering serum triglyceride, LDL and ALT levels	lowering of glucose serum levels (200 mg/kg/day, end of 6 weeks, vs Group 2)
O=C[C@H](O)[C@@H](O)[C@@H](O)[C@H](O)CO [BVISIV 5, Galactose]	effective	–
O=C[C@H](O)[C@@H](O)[C@@H](O)[C@H](O)C(=O)O [BVISIV 4, Galacturonic Acid]	–	most effective
O=C[C@@H](O)[C@H](O)[C@H](O)CO [BVISIV 6, Arabinose]	did not perform as well as the other formulations	–
